Like-named read-outs stand apart in the source and are kept apart here.
How the values were obtained:
[1] = test system: Cushing's syndrome patients; conditions: cited from earlier work
cortisol = assay: 24-hour urine cortisol during mifepristone treatment of Cushing's syndrome patients; type: in vivo, human; conditions: Mean ± SD
Procedure: (§1) The Cushing's syndrome study reported herein was conducted in accordance with the Declaration of Helsinki and Good Clinical Practice (GCP) according to International Conference on Harmonization (ICH) guidelines.
(§2) Dosing Schedule Dosing was started with 300 mg of mifepristone once per day for 14 days. After 14 days, if no clinical improvement was seen but the drug was well tolerated, the dose of mifepristone was increased to 600 mg once per day. After 4 weeks of dosing at 600 mg once per day, if no clinical improvement was seen but the drug was well tolerated, the dose was increased to 900 mg once per day. Dose escalation was based on weight with the maximum dose no higher than 20 mg/kg/day. […] After 4 weeks of dosing at 900 mg once per day, if no clinical improvement was seen but the drug was well tolerated, the dose was increased to 1200 mg once per day. Study duration was 24 weeks.
(§3) Potassium levels were obtained on every subject at either screening or the pre-drug administration baseline visit, and then also at every scheduled post-baseline visit. Potassium levels post-baseline were therefore obtained as early as day 7 and through day 210 (week 30 was the last visit and was the 6 week follow-up visit). ACTH, and cortisol were measured at six visits (week 2 (day 14), week 6 (day 42), week 10 (day 70), week 16 (day 112), and week 24 (day 168) week 6 follow-up (day 210)).

[2] = test system: Cushing's syndrome patients; conditions: in vivo
Procedure: The risk of experiencing at least one episode of hypokalemia (potassium level <3.5 mEq/L) after 7 to 14 Days of exposure to KORLYM (mifepristone) was evaluated using stepwise multivariable logistic regression and single-variable logistic regression models. The following independent factors were evaluated for potential association with hypokalemia based on the biology of the disease: total cortisol at Day 1, ACTH at Day 1, and potassium level at Day 1.
The risk of experiencing at least one episode of hypokalemia (potassium level <3.5 mmol/L) after 28 Days of exposure to KORLYM was evaluated using stepwise multivariable logistic regression and single-variable logistic regression models. The following independent factors were evaluated for potential association with hypokalemia based on the biology of the disease: total cortisol at Day 1 and Day 14 (cort_01 and cort_14), ACTH at Day 1 and Day 14 (ACTH_01 and ACTH_14), and potassium levels at Day 1 and Day 14 (K_01 and K_14).
Patients were defined to have severe/recurrent hypokalemia for this analysis if they had at least one value of potassium of 2.5 mmol/L or lower, or if they had recurrent hypokalemia (hypokalemia occurring during multiple visits after Day 14 visit).
as §1, §2
Serum electrolytes, including potassium, were measured regularly throughout the study period.
Extensive modeling of low potassium levels among the N=47 subjects was performed to determine the best predictors of low potassium after start of mifepristone. The modeling was based on logistic regressions where the endpoint was categorical Low vs High Potassium levels (Non-Hypokalemic Potassium >3.5 mmol/L vs Hypokalemic Potassium ≤3.5 mmol/L).
as §3

healthy volunteers = assay: Previous clinical studies in healthy volunteers: adverse events; type: in vivo, human
Description: Hypokalemia and rash appear to be more common in subjects receiving mifepristone than in the control groups.

[3] = Day 210 (6 week follow-up), Hypokalemic
[4] = Day 210 (6 week follow-up), Non-Hypokalemic

For CC#C[C@]1(O)CC[C@H]2[C@@H]3CCC4=CC(=O)CCC4=C3[C@@H](c3ccc(N(C)C)cc3)C[C@@]21C [mifepristone, 11β-(4-dimethylaminophenyl)-17β-hydroxy-17α-(1-propynyl)-estra-4,9-dien-3-one], the “patients with serum potassium levels less than 3.5 mEq/L” value ([1]; of 43 Cushing's syndrome patients (ACTH-dependent and ACTH-independent)) is given as 22 patients, the “patients with serum potassium levels less than 2.5 mEq/L (severe hypokalemia)” value ([1]; of the 22 hypokalemic of 43 patients) is given as 3 patients and the “24 Hour Urine Cortisol (nmol/24 hr)/ACTH Ratio Visit Values” (cortisol; Day 42, Hypokalemic) is given as 26.1 ± 18.4 (6). The “24 Hour Urine Cortisol Visit Change Values from Baseline” value (cortisol; Day 42, Hypokalemic) was 641 ± 3678 (6) nmol/24 hr, the “24 Hour Urine Cortisol Visit Values” (cortisol; Day 42, Hypokalemic) was 4373 ± 5347 (6) nmol/24 hr and the “24 Hour Urine Cortisol (nmol/24 hr)/ACTH Ratio Visit Values” (cortisol; Day 42, Non-Hypokalemic) was 7.9 ± 6.0 (35). The “24 Hour Urine Cortisol Visit Change Values from Baseline” value (cortisol; Day 42, Non-Hypokalemic) was 329 ± 967 (35) nmol/24 hr, the “24 Hour Urine Cortisol Visit Values” (cortisol; Day 42, Non-Hypokalemic) was 886 ± 1060 (35) nmol/24 hr and the “24 Hour Urine Cortisol (nmol/24 hr)/ACTH Ratio Visit Values” (cortisol; Day 70, Hypokalemic) was 33.5 ± 16.1 (6). The “24 Hour Urine Cortisol Visit Change Values from Baseline” value (cortisol; Day 70, Hypokalemic) was 4856 ± 4805 (6) nmol/24 hr, the “24 Hour Urine Cortisol Visit Values” (cortisol; Day 70, Hypokalemic) was 9132 ± 9321 (6) nmol/24 hr and the “24 Hour Urine Cortisol (nmol/24 hr)/ACTH Ratio Visit Values” (cortisol; Day 70, Non-Hypokalemic) was 17.0 ± 32.7 (30). For the same compound, the “24 Hour Urine Cortisol Visit Change Values from Baseline” value (cortisol; Day 70, Non-Hypokalemic) was 1045 ± 3500 (30) nmol/24 hr, the “24 Hour Urine Cortisol Visit Values” (cortisol; Day 70, Non-Hypokalemic) was 1696 ± 3387 (30) nmol/24 hr and the “24 Hour Urine Cortisol (nmol/24 hr)/ACTH Ratio Visit Values” (cortisol; Day 112, Hypokalemic) was 30.9 ± 31.0 (9). For the same compound, the “24 Hour Urine Cortisol Visit Change Values from Baseline” value (cortisol; Day 112, Hypokalemic) was 2916 ± 2593 (9) nmol/24 hr, the “24 Hour Urine Cortisol Visit Values” (cortisol; Day 112, Hypokalemic) was 3552 ± 2827 (9) nmol/24 hr and the “24 Hour Urine Cortisol (nmol/24 hr)/ACTH Ratio Visit Values” (cortisol; Day 112, Non-Hypokalemic) was 9.6 ± 16.3 (23). The “24 Hour Urine Cortisol Visit Change Values from Baseline” value (cortisol; Day 112, Non-Hypokalemic) was 104 ± 5293 (23) nmol/24 hr, the “24 Hour Urine Cortisol Visit Values” (cortisol; Day 112, Non-Hypokalemic) was 1314 ± 3351 (23) nmol/24 hr and the “24 Hour Urine Cortisol (nmol/24 hr)/ACTH Ratio Visit Values” (cortisol; Day 168, Hypokalemic) was 19.3 ± 9.5 (5). For the same compound, the “24 Hour Urine Cortisol Visit Change Values from Baseline” value (cortisol; Day 168, Hypokalemic) was 4128 ± 6624 (5) nmol/24 hr, the “24 Hour Urine Cortisol Visit Values” (cortisol; Day 168, Hypokalemic) was 5615 ± 5053 (5) nmol/24 hr and the “24 Hour Urine Cortisol (nmol/24 hr)/ACTH Ratio Visit Values” (cortisol; Day 168, Non-Hypokalemic) was 12.4 ± 15.5 (36). For the same compound, the “24 Hour Urine Cortisol Visit Change Values from Baseline” value (cortisol; Day 168, Non-Hypokalemic) was 512 ± 4575 (36) nmol/24 hr, the “24 Hour Urine Cortisol Visit Values” (cortisol; Day 168, Non-Hypokalemic) was 1444 ± 3127 (36) nmol/24 hr and the “24 Hour Urine Cortisol (nmol/24 hr)/ACTH Ratio Visit Values” (cortisol; [3]) was 11.5 ± 7.5 (3). For the same compound, the “24 Hour Urine Cortisol Visit Change Values from Baseline” value (cortisol; [3]) was 2497 ± 3776 (3) nmol/24 hr, the “24 Hour Urine Cortisol Visit Values” (cortisol; [3]) was 5129 ± 6335 (3) nmol/24 hr and the “24 Hour Urine Cortisol (nmol/24 hr)/ACTH Ratio Visit Values” (cortisol; [4]) was 12.5 ± 27.9 (35). The “24 Hour Urine Cortisol Visit Change Values from Baseline” value (cortisol; [4]) was 471 ± 2843 (35) nmol/24 hr, the “24 Hour Urine Cortisol Visit Values” (cortisol; [4]) was 1423 ± 6086 (35) nmol/24 hr and the “developed hypokalemia on or after Day 28” value ([2]; both, human) was 6.7%. For the same compound, the “developed severe/recurrent hypokalemia on or after Day 28” value ([2]; both, human) was 6.7%, the “subjects with a Potassium value ≤3.5 mmol/L at any of the six visits” value ([2]; both, human) was 21 subjects and the “subjects with a Potassium value ≤3.5 mmol/L at any post-baseline visit” value ([2]; both, human) was 23 subjects. For the same compound, the “Number with Hypokalemia (%) (Potassium ≤ 3.4 mEq/L)” value (from here on “Number with Hypokalemia (%)”) ([2]; both, human, 6 week) was 7 (14%) Number (%), the “Number with Hypokalemia (%)” value ([2]; both, human, 8 week) was 4 (8%) Number (%) and the “Number with Hypokalemia (%)” value ([2]; both, human, 10 week) was 4 (8%) Number (%). For the same compound, the “Number with Hypokalemia (%)” value ([2]; both, human, 12 week) was 3 (6%) Number (%), the “Number with Severe Hypokalemia (%) (Potassium ≤ 2.5 mEq/L)” value (shortened to “Number with Severe Hypokalemia (%)”) ([2]; both, human, 12 week) was 1 (2%) Number (%) and the “Number with Hypokalemia (%)” value ([2]; both, human, 16 week) was 5 (10%) Number (%). The “Number with Severe Hypokalemia (%)” value ([2]; both, human, 16 week) was 1 (2%) Number (%), the “Number with Hypokalemia (%)” value ([2]; both, human, 20 week) was 1 (2%) Number (%) and the “Number with Hypokalemia (%)” value ([2]; both, human, 24 week) was 4 (8%) Number (%). The Hypokalemia observed ([2]; both, human, 24 weeks) was 44%, the “No Hypokalemia” value ([2]; both, human, 24 weeks) was 29 (64.4) n (%) and the “Non-Severe Hypokalemia” value ([2]; both, human, 24 weeks) was 7 (15.6) n (%). The “Severe/Recurrent Hypokalemia” value ([2]; both, human, 24 weeks) was 9 (20.0) n (%), the “developed hypokalemia after dosing” value ([2]; both, human, 24 weeks) was 42.9% and the “Number with Hypokalemia (%)” value ([2]; both, human, 30 week) was 3 (6%) Number (%). The “Number with Severe Hypokalemia (%)” value ([2]; both, human, 30 week) was 1 (2%) Number (%), the “Number with Hypokalemia (%)” value ([2]; both, human, 1 day) was 2 (4%) Number (%) and the “Number with Hypokalemia (%)” value ([2]; both, human, 7 day) was 2 (4%) Number (%). The “Number of Subjects Hypokalemic <=3.5 mmol/L” value ([2]; both, human, 14 day) was 8, the “Number of Subjects Non-Hypokalemic >3.5 mmol/L” value ([2]; both, human, 14 day) was 38 and the “Number with Hypokalemia (%)” value ([2]; both, human, 14 day) was 8 (16%) Number (%). The “Number with Severe Hypokalemia (%)” value ([2]; both, human, 14 day) was 1 (2%) Number (%), the “subjects with a Potassium value ≤3.5 mmol/L as early as day 14” value ([2]; both, human, 14 days) was 8 and the “subjects with a Potassium value ≤3.5 mmol/L as early as day 14, all post-baseline values” ([2]; both, human, 14 days) was 11. For the same compound, the “Number with Hypokalemia (%)” value ([2]; both, human, 28 day) was 10 (20%) Number (%), the “Number of Subjects Hypokalemic <=3.5 mmol/L” value ([2]; both, human, 42 day) was 6 and the “Number of Subjects Non-Hypokalemic >3.5 mmol/L” value ([2]; both, human, 42 day) was 35. For the same compound, the “Number of Subjects Hypokalemic <=3.5 mmol/L” value ([2]; both, human, 70 day) was 6, the “Number of Subjects Non-Hypokalemic >3.5 mmol/L” value ([2]; both, human, 70 day) was 30 and the “Number of Subjects Hypokalemic <=3.5 mmol/L” value ([2]; both, human, 112 day) was 9. For the same compound, the “Number of Subjects Non-Hypokalemic >3.5 mmol/L” value ([2]; both, human, 112 day) was 23, the “Number of Subjects Hypokalemic <=3.5 mmol/L” value ([2]; both, human, 168 day) was 5 and the “Number of Subjects Non-Hypokalemic >3.5 mmol/L” value ([2]; both, human, 168 day) was 37. The “Number of Subjects Hypokalemic <=3.5 mmol/L” value ([2]; both, human, 210 day) was 3, the “Number of Subjects Non-Hypokalemic >3.5 mmol/L” value ([2]; both, human, 210 day) was 37 and the “patients with at least one potassium value of 2.5 mmol/L or lower” value [2] was “two”. The severity of hypokalemia [2] was “mild to moderate”, the “subjects with a day 7 Potassium value ≤3.5 mmol/L” value [2] was “three” and the “subjects with reported treatment emergent adverse events (TEAEs) of decreased blood potassium” value [2] was “Seventeen”. For the same compound, the “frequently reported adverse events” value (healthy volunteers; previous clinical studies, healthy volunteers) was “headache, gastrointestinal symptoms including diarrhea, nausea and vomiting, and rash” and the “Hypokalemia and rash versus control groups” value (healthy volunteers; subjects receiving mifepristone vs control groups) was “more common”.

Reference: patent US11202787B2, “Use of ACTH in assessment and prophylactic treatment of hypokalemia associated with glucocorticoid receptor modulator treatment of Cushing's syndrome patients” (Corcept Therapeutics, Inc., priority 2018, dated 2021)
